Like-named read-outs stand apart in the source and are kept apart here.
What was measured:
[1] = test system: AKT phosphorylation (Ser 473); assay: FCS induced AKT phosphorylation (Ser473) in IPF primary human lung fibroblasts, MSD assay (Example 1); format: cell-based; details: Fibroblast, 0.5 h, fibroblasts from n=4 IPF lungs, 10% FCS, 30 minutes, geometric mean (95% CI 0.83-8 nM), read-out: IC50 for inhibition of FCS induced AKT phosphorylation
Protocol: Phosphorylation of AKT is widely accepted as an indication of PI3-kinase activity, and is utilised here to obtain an IC50 for the effect of 2,4-difluoro-N-{2-(methyloxy)-5-[4-(4-pyridazinyl)-6-quinolinyl]-3-pyridinyl}benzenesulfonamide on primary human lung fibroblasts isolated from the IPF patients, in addition to macrophages isolated from IPF bronchoalveolar lavage (BALF).
Fibroblasts are seeded in 96 well plates at a density of 10,000 cells per well. Following 24 hours of serum starvation, fibroblasts are pre-incubated for 15 minutes in serum free buffer containing a range of concentrations of 2,4-difluoro-N-{2-(methyloxy)-5-[4-(4-pyridazinyl)-6-quinolinyl]-3-pyridinyl}benzenesulfonamide (50 μl volumes per well, comprising 1:10 dilutions of inhibitor ranging from [3×10^−12M] to [3×10^−7M] in serum free DMEM). Fibroblasts are stimulated by the addition of foetal calf serum (FCS) to a final volume of 10%. 30 minutes after stimulation, supernatants are rapidly decanted, and the cell plate placed on ice. 35 μl of 1× Complete Lysis buffer is added to each well and incubated for 10 minutes at 4° C., and stored at −80° C. prior to further analysis. […] The assay protocol is completed as per manufacturer's instructions and plates analysed on an MSD SECTOR Imager. Data are read out as the % of total AKT phosphorylated at position Ser473.

[2] = test system: primary human lung fibroblasts; assay: 72 hour cell population growth, MTS assay (CellTiter 96 AQueous); format: cell-based; details: for IC50: Homo sapiens, Fibroblast, 72 h, 10% FBS, read-out: mean pIC50, inhibition of cell growth (MTS) (converted)
Protocol: Primary human fibroblasts were isolated by explant culture from non-IPF lung tissue, obtained post mortem following sudden trauma, and IPF lung tissue obtained from the lungs of IPF patients which were removed for transplantation or biopsy. Explants were cultured in DMEM containing high glucose and sodium pyruvate (PAA laboratories, catalogue #E15-011) with penicillin/streptomycin (Sigma #P4333), amphotericin B (Sigma #A2942), L-glutamine (Gibco #25030) and 20% FBS (foetal bovine serum, Lonza, catalogue #14-801F, Lot #1SB003) at 37° C., 100% humidity, 10% CO2. Cells were designated non-IPF (UCL marked 0110 and 0610) and IPF (UCL marked 0207, 0208, 0308, 0507 and 0508) based on medical diagnosis.
Human lung primary fibroblast cell lines were cultured in DMEM containing high glucose and sodium pyruvate supplemented with L-glutamine, penicillin/streptomycin and 10% FBS (complete DMEM) at 37° C., 100% humidity, 10% CO2. Cells were split into T175 flasks (NUNC #159910) 2 to 3 days prior to assay set-up at a density which yields approximately 70-80% confluence at time of harvest for assay. […]
For reading 20 μL of CellTiter 96™ AQueous non-radioactive cell growth assay (MTS) reagent (Promega #G5430) was added to all wells. Plates were incubated for a further 2 hours at 37° C., 100% humidity, 10% CO2 then read at 490 nm on a Versamax microplate reader using Softmax Pro v5 software. Readings were corrected for FBS discoloration as per manufacturer's instructions, by the subtraction of values from media control (no cell) wells.
The maximum fitted (upper asymptote) value for each experiment and used as the 100% reference response. The MTS signal (with media background values subtracted) in the presence of increasing log Molar concentrations of 2,4-difluoro-N-{2-(methyloxy)-5-[4-(4-pyridazinyl)-6-quinolinyl]-3-pyridinyl}benzenesulfonamide were expressed as a % of the maximum asymptote. […]
In a subset of experiments, where cell growth was measured in parallel with activation of caspase 3/7, T0 readings were taken when serum free medium was changed to 10% FBS and compound added. […]

SMILES: COc1ncc(-c2ccc3nccc(-c4ccnnc4)c3c2)cc1NS(=O)(=O)c1ccc(F)cc1F [2,4-difluoro-N-{2-(methyloxy)-5-[4-(4-pyridazinyl)-6-quinolinyl]-3-pyridinyl}benzenesulfonamide]
- IC50 [1]: 2.58 nM
- IC50 ([2]; IPF fibroblasts, n=5 cell lines (+/-0.1 SEM)): 31.6 nM
- IC50 ([2]; primary human non-IPF fibroblasts, n=2 lines (±0.2 SEM)): 20 nM
- concentration at which MTS signal with 10% FBS appeared lower than no FBS controls (reduction in cell number, potentially indicative of cell death) ([2]; fibroblasts): > 30 nM
